Source: patent publication US10155756B2, “Pyrazolo[1,5-A]pyridine compounds and use thereof” (GUANGZHOU INSTITUTES OF BIOMEDICINE AND HEALTH, CHINESE …, priority 2014, dated 2018)
In brackets after ≈: the same amount, converted by molar mass. Where a name gives a salt, the structure may show the parent alone. Read-outs that look alike come from different tables or passages of the source.

Columns and labels:
[1] = tested on: clinical sorted MDR-TB P91; assay: microbe, parasite or virus in culture; type: cell-based; conditions: Mycobacterium tuberculosis, MDRTBP91
[2] = tested on: clinical sorted MDR-TB P103; assay: microbe, parasite or virus in culture; type: cell-based; conditions: Mycobacterium tuberculosis, MDRTBP103
[3] = tested on: clinical sorted MDR-TB P105; assay: microbe, parasite or virus in culture; type: cell-based; conditions: Mycobacterium tuberculosis, MDRTBP105
in vivo = assay: in vivo; parameters: species or system SD rats; conditions: rat; for bioavailability / AUC(0-inf) / Cmax / T^1/2 / Tmax: SD
Procedure: Example 55: Pharmacokinetic Studies of Compounds TJ170298 and TJ170385
1. Administration and Sample Collection a. Rat intravenous administration: SD rats 3, weight 180˜220 g. Fasting 12 h before administration, a small amount of food was allowed during the experiment, and water was free. The compounds TJ170298 and TJ170385 were administered intravenously at a dose of 2 mg/kg. The rats were respectively taken 0.3 mL orbital blood at 2 min, 10 min, 30 min, 1.0 h, 2.0 h, 3.0 h, 4.0 h, 6.0 h, 8.0 h, 12.0 h, 21 h, 24.0 h, 30 h, 36 h, 48 h, 60 h, 72 h after administration, which was then placed in heparinized test tube, centrifuged 10 min at 6000 rpm, and plasma was separated, preserved at 4° C. to be measured. […]
b. Rat oral administration: SD rats 3, weight 180˜220 g. Fasting for 12 h before administration, a small amount of food was allowed during the experiment, and water was free. The compounds TJ170298 and TJ170385 were orally administered at a dose of 10 mg/kg, respectively. The rats were respectively taken 0.3 mL orbital blood at 2 min, 10 min, 30 min, 1.0 h, 2.0 h, 3.0 h, 4.0 h, 6.0 h, 8.0 h, 12.0 h, 21 h, 24.0 h, 30 h, 36 h, 48 h, 60 h, 72 h after administration, which was then placed in heparinized test tube, centrifuged 10 min at 6000 rpm, and plasma was separated, preserved at 4° C. to be measured.
2. Determination of Plasma Samples a. Plasma Sample Treatment
150 μl of the internal standard solution ([…], acetonitrile solution) was added to 50 μL of the above plasma sample, mixed well; after eddy mixing for 2 min, centrifuge for 30 min (13000 rpm, 4° C.), supernatant was taken to another centriguge tube, and 20 μL of which was taken for LC/MS/MS analysis. […]
b. Preparation of Standard Curve
50 μL of rat blank plasma was taken, to which 10 μL of compound standard series solution was added to prepare compound plasma samples equivalent to plasma concentration of 20, 50, 100, 500, 1000, 2000, 4000, 6000, 12000, 40000 ng/mL. According to “plasma sample treatment” item, the standard curve was established. The concentration (X) of an analyte is as the abscissa, the peak area ratio (y) of the analyte and the internal standard is as the ordinate, and the regression is performed by the weighted (W=1/x2) least squares method to obtain the linear regression Equation, that is, the standard curve.
C. Data Processing and Analysis
The pharmacokinetic parameters of rats after administration were calculated by DAS 2.0 software.

[4] = tested on: Mycobacterium tuberculosis standard strain H37Rv; assay: Plate MIC of Example 53, standard strain H37Rv; type: cell-based
[5] = tested on: self-luminescent tuberculosis; assay: microbe, parasite or virus in culture; type: cell-based
[6] = tested on: mycobacterium tuberculosis self-luminescent bacteria H37Ra; conditions: for spleen anti-tuberculosis activity compared with the positive control Rifampicin: in vivo
[7] = tested on: Mycobacterium tuberculosis standard strain H37Rv; assay: MIC of Mycobacterium tuberculosis by a plate method; conditions: 7H11 plates, 37° C. for 4 weeks, colony count
[8] = Mycobacterium tuberculosis, 72 h, read-out: MIClux
[9] = Mycobacterium tuberculosis, 72 h; read-out: MIClux

CO[C@H]1/C=C/O[C@@]2(C)Oc3c(C)c(O)c4c(O)c(c(/C=N/N5CCN(C)CC5)c(O)c4c3C2=O)NC(=O)/C(C)=C\C=C\[C@H](C)[C@H](O)[C@@H](C)[C@@H](O)[C@@H](C)[C@H](OC(C)=O)[C@@H]1C [RIF, rifampicin, reference compound]
MIC [1]: 1 to 10 µg/mL (≈ 1.22 to 12.2 µM)
MIC [2]: > 10 µg/mL
MIC [3]: > 10 µg/mL

CCc1nn2ccc(Cl)cc2c1C(=O)NCc1ccc(N2CCC(c3ccc(OC(F)(F)F)cc3)CC2)cc1 [TJ170298 (hydrochloride), 5-chloro-2-ethyl-N-(4-(4-(4-(trifluoromethoxy)phenyl)piperidine-1-yl)benzyl) pyrazolo [1,5-a]pyridine-3-carboxamide]
bioavailability (in vivo): 24.1%
AUC(0-inf) (in vivo; iv, 2 mg/kg): 3900 ng·h/mL
Cmax (in vivo; iv, 2 mg/kg): 1550 ng/mL
T^1/2 (in vivo; iv, 2 mg/kg): 19.975 h
Tmax (in vivo; iv, 2 mg/kg): 0.033 h
AUC(0-inf) (in vivo; po, 10 mg/kg): 4700 ng·h/mL
Cmax (in vivo; po, 10 mg/kg): 509 ng/mL
T^1/2 (in vivo; po, 10 mg/kg): 19.699 h
Tmax (in vivo; po, 10 mg/kg): 2 h

CCc1nn2ccc(Cl)cc2c1C(=O)NCc1ccc(N2CCC(c3ccc(OC(F)(F)F)cc3)CC2)cc1 [TJ170298, 5-chloro-2-ethyl-N-(4-(4-(4-(trifluoromethoxy)phenyl)piperidine-1-yl)benzyl) pyrazolo [1,5-a]pyridine-3-carboxamide]
MIC [4]: 0.012 µg/mL
MIC [1]: < 0.075 µg/mL
MIC [2]: < 0.075 µg/mL
MIC [5, 8]: < 1 µg/mL
MIC [3]: 0.15 µg/mL (≈ 0.269 µM)
pharmacokinetic properties (in words) (in vivo): good pharmacokinetic properties
in vivo anti-tuberculosis activity (luminous values within live mice) [6]: obvious in vivo anti-tuberculosis activity
in vivo anti-tuberculosis activity compared with the positive control Rifampicin [6]: equal to or better than that of the positive control Rifampicin
spleen anti-tuberculosis activity compared with the positive control Rifampicin [6]: bad than that of the positive control Rifampicin

CCc1nn2ccc(Cl)cc2c1C(=O)NCc1ccc(C(F)(F)F)cc1 [TJ170322]
MIC [5, 9]: < 1 µg/mL
MIC [7]: 0.1 µg/mL

Cc1nn2ccc(Cl)cc2c1C(=O)NCc1ccc(N2CCC(c3ccc(OC(F)(F)F)cc3)CC2)cc1 [TJ170372, 5-chloro-2-methyl-N-(4-(4-(4-(trifluoromethoxy)phenyl)piperidine-1-yl)benzyl) pyrazolo [1,5-a] pyridine-3-carboxamide]
MIC [5, 9]: < 1 µg/mL
in vivo anti-tuberculosis activity (luminous values within live mice) [6]: obvious in vivo anti-tuberculosis activity
in vivo anti-tuberculosis activity compared with the positive control Rifampicin [6]: equal to or better than that of the positive control Rifampicin
spleen anti-tuberculosis activity compared with the positive control Rifampicin [6]: bad than that of the positive control Rifampicin
MIC [7]: 0.01 µg/mL

O=C(NCc1ccc(N2CCC(c3ccc(OC(F)(F)F)cc3)CC2)cc1)c1c(C2CC2)nn2ccc(Cl)cc12 [TJ170375, 5-chloro-2-cyclopropyl-N-(4-(4-(4-(trifluoromethoxy)phenyl)piperidine-1-substituted)benzyl) pyrazolo [1,5-a] pyridine-3-carboxamide]
MIC [5, 9]: < 1 µg/mL
MIC [7]: 0.1 µg/mL

Cc1nn2ccccc2c1C(=O)NCc1ccc(N2CCC(c3ccc(OC(F)(F)F)cc3)CC2)cc1 [TJ170381, 2-methyl-N-(4-(4-(4-(trifluoromethoxy)phenyl)piperidine-1-yl)benzyl) pyrazolo [1,5-a] pyridine-3-carboxamide]
MIC [5, 8]: < 1 µg/mL
MIC [7]: 0.1 µg/mL

Cc1ccn2nc(C)c(C(=O)NCc3ccc(N4CCC(c5ccc(OC(F)(F)F)cc5)CC4)cc3)c2c1 [TJ170385, 2,5-dimethyl-N-(4-(4-(4-(trifluoromethoxy)phenyl)piperidine-1-yl)benzyl) pyrazolo [1,5-a] pyridine-3-carboxamide]
MIC [5, 8]: < 1 µg/mL
bioavailability (in vivo): 94.5%
AUC(0-inf) (in vivo; iv, 2 mg/kg): 2030 ng·h/mL
Cmax (in vivo; iv, 2 mg/kg): 1040 ng/mL
T^1/2 (in vivo; iv, 2 mg/kg): 10.933 h
AUC(0-inf) (in vivo; po, 10 mg/kg): 9590 ng·h/mL
Cmax (in vivo; po, 10 mg/kg): 644 ng/mL
T^1/2 (in vivo; po, 10 mg/kg): 27.374 h
Tmax (in vivo; po, 10 mg/kg): 2 h
pharmacokinetic properties (in words) (in vivo): good pharmacokinetic properties
in vivo anti-tuberculosis activity (luminous values within live mice) [6]: obvious in vivo anti-tuberculosis activity
in vivo anti-tuberculosis activity compared with the positive control Rifampicin [6]: equal to or better than that of the positive control Rifampicin
spleen anti-tuberculosis activity compared with the positive control Rifampicin [6]: bad than that of the positive control Rifampicin
MIC [7]: 0.01 µg/mL

Cc1ccn2nc(C)c(C(=O)NCc3cnc(-c4ccc(OC(F)(F)F)cc4)nc3)c2c1 [TJ830150, 2,5-Dimethyl-N-((2-(4-(trifluoromethoxy)phenyl)pyrimidine-5-yl)methyl) pyrazolo [1,5-a] pyridine-3-carboxamide]
MIC [5, 9]: < 1 µg/mL

Cc1ccn2nc(C)c(C(=O)NCc3ccc(-c4ccc(OC(F)(F)F)cc4)cc3)c2c1 [TJ830151, 2,5-dimethyl-N-((4′-(trifluoromethoxy)-[1,1′-biphenyl]-4-yl)methyl) pyrazolo [1,5-a] pyridine-3-carboxamide]
MIC [5, 9]: < 1 µg/mL

Cc1ccn2nc(C)c(C(=O)NCc3ccc(N4CCN(c5ccc(F)cc5)CC4)cc3)c2c1 [TJ830152, N-(4-(4-(4-fluorophenyl)piperazine-1-yl)benzyl)-2,5-dimethyl-pyrazolo [1,5-a] pyridine-3-carboxamide]
MIC [5, 9]: < 1 µg/mL

Cc1ccn2nc(C)c(C(=O)NCc3ccc(Oc4ccc(OC(F)(F)F)cc4)cc3)c2c1 [TJ830153]
MIC [5, 9]: < 1 µg/mL

Cc1ccn2nc(C)c(C(=O)NCc3ccc(N4CCC(Oc5ccc(OC(F)(F)F)cc5)CC4)cc3)c2c1 [TJ830161, 2,5-dimethyl-N-(4-(4-(4-(trifluoromethoxy)phenoxy)piperidine-1-yl)benzyl) pyrazolo [1,5-a] pyridine-3-carboxamide]
MIC [5, 9]: < 1 µg/mL

CCc1nn2ccc(Cl)cc2c1C(=O)NCc1ccc(F)cc1 [TJ4570004, 5-chloro-2-ethyl-N-(4-fluorobenzyl) pyrazolo [1,5-a] pyridine-3-carboxamide]
MIC [5, 9]: > 10 µg/mL

Cc1ccn2nc(C)c(C(=O)NCc3ccc(F)cc3)c2c1 [TJ4570006, N-(4-fluorobenzyl)-2,5-dimethylpyrazolo [1,5-a] pyridine-3-carboxamide]
MIC [5, 9]: 1 to 10 µg/mL (≈ 3.36 to 33.6 µM)

NNC(=O)c1ccncc1 [isoniazid, reference compound]
MIC [7]: <=0.1 μg/mL
